Reference: article PMC7434514 (ChemMedChem, 2020)
Where “and” joins values, the source holds several entries; their conditions need not be identical. Equal values may be shown once.

Legend:
NDM-1 [1] = conditions: read-out: IC50 against NDM-1; ref 19e, 20; cited from earlier work
[2] = system: NDM-1 expressing Klebsiella pneumoniae; conditions: mouse infected with NDM-1 expressing Klebsiella pneumoniae; ref 19e, 20; cited from earlier work
VIM-2 = VIM-2 (Escherichia coli, UniProt Q5U7L7); type: binding; conditions: VIM-2 10 μM, inhibitor 50 μM, approximately 5 min incubation
NDM-1 [3] = target: T1, NDM-1 (Klebsiella pneumoniae, UniProt C7C422); type: binding; conditions: NDM-1 10 μM, inhibitor 50 μM, approximately 5 min incubation
Target sequence in this assay (C7C422 37-270 limits assumed): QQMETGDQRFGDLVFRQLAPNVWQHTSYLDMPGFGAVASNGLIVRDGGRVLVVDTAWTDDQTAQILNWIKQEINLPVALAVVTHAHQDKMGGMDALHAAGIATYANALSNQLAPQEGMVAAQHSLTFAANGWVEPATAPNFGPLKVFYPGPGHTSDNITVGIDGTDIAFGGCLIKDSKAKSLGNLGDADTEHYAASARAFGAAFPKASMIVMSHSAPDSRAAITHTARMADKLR

NDM-1 [4] = target: T1, NDM-1; test: biochemical; conditions: for Percent Inhibition against NDM-1: meropenem substrate
Target sequence in this assay (C7C422 36-270): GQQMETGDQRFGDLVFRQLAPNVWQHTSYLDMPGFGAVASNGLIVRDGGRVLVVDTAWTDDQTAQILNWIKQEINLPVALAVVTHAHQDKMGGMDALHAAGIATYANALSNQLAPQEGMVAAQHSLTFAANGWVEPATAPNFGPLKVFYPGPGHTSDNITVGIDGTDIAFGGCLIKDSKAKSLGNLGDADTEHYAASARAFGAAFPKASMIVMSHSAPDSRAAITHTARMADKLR

NDM-1 [5] = target: T1, NDM-1; type: binding; conditions: 5 μM NDM-1, 200 μM inhibitor; native NDM-1 TM = 55.95±0.06 °C
Target sequence in this assay (C7C422 29-270, looked up): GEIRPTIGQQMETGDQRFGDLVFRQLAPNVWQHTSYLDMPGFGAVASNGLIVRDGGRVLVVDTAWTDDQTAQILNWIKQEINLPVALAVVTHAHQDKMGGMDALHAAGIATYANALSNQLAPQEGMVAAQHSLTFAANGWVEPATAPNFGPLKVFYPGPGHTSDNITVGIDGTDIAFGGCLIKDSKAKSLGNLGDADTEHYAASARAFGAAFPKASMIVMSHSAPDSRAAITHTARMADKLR

[6] = read-out: Kd for Zn(II) ions; cited from earlier work
[7] = read-out: Percent Inhibition against NDM-1

SMILES: N[C@H](CN[C@H](CN[C@@H](CC(=O)O)C(=O)O)C(=O)O)C(=O)O [AMA, Aspergillomarasmine A]
- IC50 (NDM-1 [1]): 4 to 7 µM
- ability to restore meropenem activity in vivo [2]: restore meropenem activity

SMILES: CN(CC(=O)O)CC(=O)O [Compound 1]
- Complex observed by native ESI-MS (VIM-2): 2Zn: VIM-2:1
- Complex observed by native ESI-MS (NDM-1 [3]): 2Zn: NDM-1:1
- Percent Inhibition against NDM-1 (NDM-1 [4]; compound at 200 μM): 80%
- Percent Inhibition against NDM-1 (NDM-1 [4]; compound at 250 μM): 90%
- ∆Tm (NDM-1 [5]): 1.9±0.2 °C

SMILES: O=C(O)CN(CC(=O)O)Cc1ccccc1 [Compound 11]
- Percent Inhibition against NDM-1 (NDM-1 [4]; compound at 250 μM): 65%

SMILES: CN(CCC(=O)O)CC(=O)O [Compound 13a, 3-((Carboxymethyl)(methyl)amino)propanoic acid]
- Percent Inhibition against NDM-1 (NDM-1 [4]; compound at 250 μM): complete loss of activity

SMILES: O=C(O)CCN(CC(=O)O)Cc1ccccc1 [Compound 13b, 3-(Benzyl(carboxymethyl)amino)propanoic acid]
- Percent Inhibition against NDM-1 (NDM-1 [4]; compound at 250 μM): complete loss of activity

SMILES: O=C(O)CN(CCP(=O)(O)O)Cc1ccccc1 [Compound 15, N-Benzyl-N-(2-phosphonoethyl)glycine]
- Percent Inhibition against NDM-1 (NDM-1 [4]; compound at 250 μM): no inhibition

SMILES: O=C(O)CN(Cc1ccccc1)Cc1nnn[nH]1 [Compound 17, N-((1H-tetrazol-5-yl)methyl)-N-benzylglycine]
- Percent Inhibition against NDM-1 (NDM-1 [4]; compound at 250 μM): comparable to that of 11

SMILES: O=C(O)CN(CCc1ccccc1)CC(=O)O [Compound 21a, 2,2’-(Phenethylazanediyl)diacetic acid]
- inhibition at 250 µM (NDM-1 [4]; [7]): 56 to 76%

SMILES: O=C(O)CN(CC(=O)O)Cc1ccc(-c2ccccc2)cc1 [Compound 21b, 2,2’-(([1,1’-Biphenyl]-4-ylmethyl)azanediyl)diacetic acid]
- inhibition at 250 µM (NDM-1 [4]; [7]): 56 to 76%

SMILES: O=C(O)CN(CC(=O)O)Cc1cccc(-c2ccccc2)c1 [Compound 21c, 2,2’-(([1,1’-Biphenyl]-3-ylmethyl)azanediyl)diacetic acid]
- inhibition at 250 µM (NDM-1 [4]; [7]): 56 to 76%

SMILES: O=C(O)CN(CC(=O)O)Cc1ccsc1 [Compound 21h, 2,2’-((Thiophen-3-ylmethyl)azanediyl)diacetic acid]
- inhibition at 250 µM (NDM-1 [4]; [7]): 64%

SMILES: O=C(O)CN(CC(=O)O)Cc1ccoc1 [Compound 21i, 2,2’-((Furan-3-ylmethyl)azanediyl)diacetic acid]
- inhibition at 250 µM (NDM-1 [4]; [7]): ~99%
- ∆Tm (NDM-1 [5]): 3.4±0.3 °C

SMILES: O=C(O)CN(CC(=O)O)S(=O)(=O)c1ccccc1 [Compound 21j, 2,2’-((Phenylsulfonyl)azanediyl)diacetic acid]
- Percent Inhibition against NDM-1 (NDM-1 [4]; compound at 250 μM): complete loss of activity

SMILES: O=C(O)CN(CC(=O)O)S(=O)(=O)Cc1ccccc1 [Compound 21k, 2,2’-((Benzylsulfonyl)azanediyl)diacetic acid]
- Percent Inhibition against NDM-1 (NDM-1 [4]; compound at 250 μM): complete loss of activity

SMILES: O=C(O)CN(CC(=O)O)S(=O)(=O)c1cccs1 [Compound 21l, 2,2’-((Thiophen-2-ylsulfonyl)azanediyl)diacetic acid]
- Percent Inhibition against NDM-1 (NDM-1 [4]; compound at 250 μM): ~ 20%

SMILES: O=C(O)CN(CC(=O)O)S(=O)(=O)c1cc2ccccc2s1 [Compound 21m, 2,2’-((Benzo[b]thiophen-2-ylsulfonyl)azanediyl)diacetic acid]
- Percent Inhibition against NDM-1 (NDM-1 [4]; compound at 250 μM): ~ 20%

SMILES: O=C(O)CN(CC(=O)O)Cc1cccs1 [Compound 23a, 2,2’-((Thiophen-2-ylmethyl)azanediyl)diacetic acid]
- ∆Tm (NDM-1 [5]): 3.1±0.1 °C

SMILES: O=C(O)CN(CC(=O)O)Cc1ccco1 [Compound 23b, 2,2’-((Furan-2-ylmethyl)azanediyl)diacetic acid]
- ∆Tm (NDM-1 [5]): 1.6±0.4 °C

SMILES: Cc1ccc(CN(CC(=O)O)CC(=O)O)s1 [Compound 23c, 2,2’-(((5-Methylthiophen-2-yl)methyl)azanediyl)diacetic acid]
- Complex observed by native ESI-MS (VIM-2): 2Zn: VIM-2:23c
- Complex observed by native ESI-MS (NDM-1 [3]): 2Zn: NDM-1:23c

SMILES: Cc1ccc(CN(CC(=O)O)CC(=O)O)o1 [Compound 23d, 2,2’-(((5-Methylfuran-2-yl)methyl)azanediyl)diacetic acid]
- Complex observed by native ESI-MS (VIM-2): 2Zn: VIM-2:23d
- Complex observed by native ESI-MS (NDM-1 [3]): 2Zn: NDM-1:23d
- ∆Tm (NDM-1 [5]): 3.4±0.2 °C

SMILES: O=C(O)CN(CCc1cccs1)CC(=O)O [Compound 23e, 2,2’-((2-(Thiophen-2-yl)ethyl)azanediyl)diacetic acid]
- Complex observed by native ESI-MS (VIM-2): 2Zn: VIM-2:23e
- Complex observed by native ESI-MS (NDM-1 [3]): 2Zn: NDM-1:23e
- ∆Tm (NDM-1 [5]): 1.7±0.2 °C

SMILES: O=C(O)CN(CCc1ccco1)CC(=O)O [Compound 23f, 2,2’-((2-(Furan-2-yl)ethyl)azanediyl)diacetic acid]
- Complex observed by native ESI-MS (VIM-2): 2Zn: VIM-2:23f
- Complex observed by native ESI-MS (NDM-1 [3]): 2Zn: NDM-1:23f
- Ki (NDM-1 [4]): 2.6 µM
- fold improvement in inhibitory activity (NDM-1 [4]; ethyl-linker (23f) versus methyl-linker (23b)): 2.5 fold
- ∆Tm (NDM-1 [5]): 1.5±0.1 °C

SMILES: O=C(O)CN(CC(=O)O)Cc1ccc(Br)s1 [Compound 23g, 2,2’-(((5-Bromothiophen-2-yl)methyl)azanediyl)diacetic acid]
- ∆Tm (NDM-1 [5]): 3.0±0.3 °C

SMILES: O=C(O)c1cccc(C(=O)O)n1 [DPA, dipicolinic acid, reference compound]
- Complex observed by native ESI-MS (VIM-2): 0Zn: VIM-2:DPA
- Complex observed by native ESI-MS (NDM-1 [3]): 0Zn: NDM-1 and 1Zn: NDM-1 and 2Zn: NDM-1
- ∆Tm (NDM-1 [5]): −14.5±0.2 °C

SMILES: O=C(O)CN(CCN(CC(=O)O)CC(=O)O)CC(=O)O [EDTA, reference compound]
- Complex observed by native ESI-MS (NDM-1 [3]): metal free NDM-1

SMILES: O=C(O)CNCC(=O)O [IDA, Iminodiacetic acid]
- inhibition at 200 µM (NDM-1 [4]; [7]): 48%
- Kd [6]: 32 µM
